What is called inhibition is how much of the control response was suppressed.

Drawing on patent publication US8492559B2, “Substituted indole compounds” (Gruenenthal GmbH, priority 2009, dated 2013), this text covers inhibition for 17 compounds.

For this test, the target named is T1, human B1R receptor (hB1R) (Homo sapiens, UniProt P46663).
T1 construct: expressed in transfected cells; host or cells: CHO K1 cells
T1 sequence (P46663 1-353): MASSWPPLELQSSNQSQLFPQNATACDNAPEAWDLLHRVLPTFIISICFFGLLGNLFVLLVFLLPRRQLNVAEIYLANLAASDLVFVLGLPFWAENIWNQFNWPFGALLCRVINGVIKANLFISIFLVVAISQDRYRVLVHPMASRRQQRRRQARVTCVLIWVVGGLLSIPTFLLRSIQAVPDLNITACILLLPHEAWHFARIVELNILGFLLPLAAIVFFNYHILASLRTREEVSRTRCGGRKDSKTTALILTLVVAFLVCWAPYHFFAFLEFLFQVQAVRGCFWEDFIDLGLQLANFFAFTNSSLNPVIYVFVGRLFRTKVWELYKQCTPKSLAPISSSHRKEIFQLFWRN
Put plainly: Functional investigation on the bradykinin 1 receptor (B1R), FLIPR Ca2+ assay, hB1R cells. The note with it: CHO-K1, 10 μM test substance; CHO K1 cells with human B1R; agonist Lys-Des-Arg9 bradykinin; % of maximum achievable inhibition; read-out: B1R antagonism, human [10 μM] % inhibition. The class given is cell-based. The method, then: The agonistic or antagonistic action of substances can be quantified on the bradykinin 1 receptor (B1R) of the human and rat species with ectopically expressing cell lines (CHO K1 cells) and with the aid of a Ca^2+-sensitive dye (Fluo-4) using a fluorescent imaging plate reader (FLIPR). The indication in % activation is based on the Ca^2+ signal after addition of Lys-Des-Arg^9 bradykinin (0.5 nM) or Des-Arg^9 bradykinin (100 nM). Antagonists lead to a suppression of the Ca^2+ influx following administration of the agonist. The % inhibition in comparison with the maximum achievable inhibition is indicated.
1. Functional Investigation on the Bradykinin 1 Receptor (B1R)
The agonistic or antagonistic action of substances can be determined on the bradykinin 1 receptor (B1R) of the human and rat species with the following assay. According to this assay, the Ca^2+ inflow through the channel is quantified with the aid of a Ca^2+-sensitive dye (Fluo-4 type, Molecular Probes Europe BV, Leiden, Netherlands) in a fluorescent imaging plate reader (FLIPR, Molecular Devices, Sunnyvale, USA).
Chinese hamster ovary cells (CHO K1 cells) which are stably transfected with the human B1R gene (hB1R cells) or the B1R gene of the rat (rB1R cells) are used. For functional investigations these cells are plated-out onto black 96-well plates with a clear base (BD Biosciences, Heidelberg, Germany or Greiner, Frickenhausen, Germany) in a density of 20,000-35,000 cells/well. Overnight the cells are incubated at 37° C. and 5% CO2 in culture medium (hB1R cells: Ham's Nutrient Mixture F12, Gibco Invitrogen GmbH, Karlsruhe, Germany or DMEM, Sigma-Aldrich, Taufkirchen, Germany; rB1R cells: D-MEM/F12, Gibco Invitrogen, Karlsruhe, Germany) with 10 vol. % FBS (foetal bovine serum, Gibco Invitrogen GmbH, Karlsruhe, Germany or PAN Biotech GmbH, Aidenbach, Germany).
On the following day the cells are loaded with 2.13 μM Fluo-4 (Molecular Probes Europe BV, Leiden, Netherlands) in HBSS buffer (Hank's buffered saline solution, Gibco Invitrogen GmbH, Karlsruhe, Germany) with 2.5 mM probenecid (Sigma-Aldrich, Taufkirchen, Germany) and 10 mM HEPES (Sigma-Aldrich, Taufkirchen, Germany) for 60 min at 37° C. The plates are subsequently washed twice with HBSS buffer, and HBSS buffer which additionally contains 0.1% BSA (bovine serum albumin; Sigma-Aldrich, Taufkirchen, Germany), 5.6 mM glucose and 0.05% gelatine (Merck KGaA, Darmstadt, Germany) is added. After a further incubation of 20 minutes at room temperature, the plates are inserted into the FLIPR for Ca^2+ measurement.
Alternatively they are washed with buffer A (15 mM HEPES, 80 mM NaCl, 5 mM KCl, 1.2 mM CaCl2, 0.7 mM MgSO4, 2 g/l glucose, 2.5 mM probenecid) and loaded with buffer A with added 2.5 μM Fluo-4 and 0.025% Pluronic F127 (Sigma-Aldrich, Taufkirchen, Germany). The cells are then washed twice with buffer A and incubated for 30 minutes with buffer A, which additionally contains 0.05% BSA and 0.05% gelatine, at room temperature and then used for Ca^2+ measurement in the FLIPR. The Ca^2+-dependent fluorescence is measured here before and after addition of substances (λex=488 nm, λem=540 nm). The quantification is performed by measuring the highest fluorescence intensity (FC, fluorescence counts) over time.
The FLIPR protocol comprises two additions of substance. Test substances (10 μM) are first pipetted onto the cells and the Ca^2+ inflow is compared with the control (hB1R: Lys-Des-Arg^9 bradykinin>=50 nM; rB1R: Des-Arg^9 bradykinin 10 μM). The value in % activation based on the Ca^2+ signal after addition of Lys-Des-Arg^9 bradykinin (>=50 nM) or Des-Arg^9 bradykinin (10 μM) is obtained therefrom. After incubation for 10-20 minutes, Lys-Des-Arg^9 bradykinin (hB1R) or Des-Arg^9 bradykinin (rB1R) is applied in the EC80 concentration and the inflow of Ca^2+ is likewise determined.
Antagonists lead to a suppression of the Ca^2+ inflow. The % inhibition in comparison with the maximum achievable inhibition is calculated. […]
`COc1cc(C)c(S(=O)(=O)Nc2cccc3ccn(CC(=O)N4CCC5(CCN(c6ccncc6)CC5)C4)c23)c(C)c1` [Compound G-14, 4-Methoxy-2,6-dimethyl-N-(1-(2-oxo-2-(8-(pyridin-4-yl)-2,8-diazaspiro[4.5]decan-2-yl)ethyl)-1H-indol-7-yl)benzenesulfonic acid amide]: the inhibition at 10 µM was 99%.
With `O=C(Cn1ccc2ccc(N3Cc4cccc(Cl)c4C3=O)cc21)N1CCC2(CC1)CC(c1ccncc1)=NO2` [Compound G-15, 7-Chloro-2-(1-(2-oxo-2-(3-(pyridin-4-yl)-1-oxa-2,8-diazaspiro[4.5]dec-2-en-8-yl)ethyl)-1H-indol-6-yl)isoindolin-1-one] the figure was 81%; with `COc1cc(C)c(S(=O)(=O)Nc2cccc3ccn(CC(=O)N4CCC(N5CCc6cc(CN7CCCCC7)ccc6C5)C4)c23)c(C)c1` (centres unmarked) [Compound G-16, 4-Methoxy-2,6-dimethyl-N-(1-(2-oxo-2-(3-(6-(piperidin-1-ylmethyl)-3,4-dihydroisoquinolin-2(1H)-yl)pyrrolidin-1-yl)ethyl)-1H-indol-7-yl)benzenesulfonic acid amide], 100%; with `COc1cc(C)c(S(=O)(=O)Nc2cccc3ccn(CC(=O)N4CCC5(CCN(c6ccncc6)C5)C4)c23)c(C)c1` (centres unmarked) [Compound G-17, 4-Methoxy-2,6-dimethyl-N-(1-(2-oxo-2-(7-(pyridin-4-yl)-2,7-diazaspiro[4.4]nonan-2-yl)ethyl)-1H-indol-7-yl)benzenesulfonic acid amide], 100%.
To `COc1cc(C)c(S(=O)(=O)Nc2cccc3ccn(CC(=O)N4CCC5(CCC(N6CCC6)CC5)CC4)c23)c(C)c1` [Compound G-18, N-(1-(2-(9-(azetidin-1-yl)-3-azaspiro[5.5]undecan-3-yl)-2-oxoethyl)-1H-indol-7-yl)-4-methoxy-2,6-dimethylbenzenesulfonic acid amide] belongs 99%.
With `O=C(Cn1ccc2ccc(N3Cc4cccc(Cl)c4C3=O)cc21)N1CCC2(CCC(Oc3ccncc3)CC2)CC1` [Compound G-19, 7-Chloro-2-(1-(2-oxo-2-(9-(pyridin-4-yloxy)-3-azaspiro[5.5]undecan-3-yl)ethyl)-1H-indol-6-yl)isoindolin-1-one] the figure was 97%; with `O=C(Cn1ccc2ccc(N3Cc4cccc(Cl)c4C3=O)cc21)N1CCC2(CCC(N3CC(F)(F)C3)CC2)CC1` [Compound G-20, 7-Chloro-2-(1-(2-(9-(3,3-difluoroazetidin-1-yl)-3-azaspiro[5.5]undecan-3-yl)-2-oxoethyl)-1H-indol-6-yl)isoindolin-1-one], 43%; with `O=C(Cn1ccc2ccc(N3Cc4cccc(Cl)c4C3=O)cc21)N1CCC2(CCC(N3CCC3)CC2)CC1` [Compound G-21, 2-(1-(2-(9-(Azetidin-1-yl)-3-azaspiro[5.5]undecan-3-yl)-2-oxoethyl)-1H-indol-6-yl)-7-chloroisoindolin-1-one], 99%.
Turning to `COc1cc(C)c(S(=O)(=O)Nc2cccc3ccn(CC(=O)N4CCC5(CCC(Oc6ccncc6)CC5)CC4)c23)c(C)c1` [Compound G-22, 4-Methoxy-2,6-dimethyl-N-(1-(2-oxo-2-(9-(pyridin-4-yloxy)-3-azaspiro[5.5]undecan-3-yl)ethyl)-1H-indol-7-yl)benzenesulfonic acid amide], the inhibition at 10 µM amounted to 100%.
Take `Cn1c2c(c3c(Cl)cccc31)C(=O)N(c1ccc3ccn(CC(=O)N4CCC5(CC4)CCN(c4ccncc4)CC5)c3c1)C2` [Compound G-23, 8-Chloro-4-methyl-2-[1-[2-oxo-2-(9-pyridin-4-yl-3,9-diazaspiro[5.5]undecan-3-yl)-ethyl]-1H-indol-6-yl]-3,4-dihydro-2H-pyrrolo[3,4-b]indol-1-one]: the inhibition at 10 µM stood at 100%.
With `COc1cc(C)c(S(=O)(=O)NCc2cccc3ccn(CC(=O)N4CCC5(CC4)CCN(c4ccncc4)CC5)c23)c(C)c1` [Compound G-24, 4-Methoxy-2,6-dimethyl-N-[[1-[2-oxo-2-(9-pyridin-4-yl-3,9-diazaspiro[5.5]undecan-3-yl)-ethyl]-1H-indol-7-yl]-methyl]-benzenesulfonic acid amide], the inhibition at 10 µM turned out to be 98%.
Take `Cc1cccc2c1C(=O)N(c1ccc3ccn(CC(=O)N4CCC5(CC4)CCN(c4ccncc4)CC5)c3c1)C2` [Compound G-26, 7-Methyl-2-[1-[2-oxo-2-(9-pyridin-4-yl-3,9-diazaspiro[5.5]undecan-3-yl)-ethyl]-1H-indol-6-yl]-2,3-dihydro-isoindol-1-one]: the inhibition at 10 µM was determined as 98%.
With `Cc1ccc2n1C(=O)N(c1ccc3ccn(CC(=O)N4CCC5(CC4)CCN(c4ccncc4)CC5)c3c1)C2` [Compound G-27, 5-Methyl-2-[1-[2-oxo-2-(9-pyridin-4-yl-3,9-diazaspiro[5.5]undecan-3-yl)-ethyl]-1H-indol-6-yl]-1,2-dihydro-pyrrolo[2,1-e]imidazol-3-one] the figure was 96%; with `O=C(Cn1ccc2ccc(N3CCn4c(c(Cl)c5ccccc54)C3=O)cc21)N1CCC2(CC1)CCN(c1ccncc1)CC2` [Compound G-31, 10-Chloro-2-[1-[2-oxo-2-(9-pyridin-4-yl-3,9-diazaspiro[5.5]undecan-3-yl)-ethyl]-1H-indol-6-yl]-3,4-dihydro-2H-pyrazino[1,2-a]indol-1-one], 80%; with `O=C(Cn1ccc2ccc(N3CCn4ccc(Cl)c4C3=O)cc21)N1CCC2(CC1)CCN(c1ccncc1)CC2` [Compound G-33, 8-Chloro-2-[1-[2-oxo-2-(9-pyridin-4-yl-3,9-diazaspiro[5.5]undecan-3-yl)-ethyl]-1H-indol-6-yl]-3,4-dihydro-2H-pyrrolo[1,2-a]pyrazin-1-one], 93%.
With `COc1cc(C)c(S(=O)(=O)Nc2ccc3ccn(CC(=O)N4CCC(N5CCN(C)CC5)CC4)c3c2)c(C)c1` [G_CC-2, 4-Methoxy-2,6-dimethyl-N-[1-[2-[4-(4-methyl-piperazin-1-yl)-piperidin-1-yl]-2-oxo-ethyl]-1H-indol-6-yl]-benzenesulfonic acid amide], the inhibition at 10 µM is 46%.
To `Cc1cc(S(=O)(=O)Nc2ccc3ccn(CC(=O)N4CCN(CC5CCN(C)CC5)CC4)c3c2)c(C)cc1Cl` [G_CC-8, 4-Chloro-2,5-dimethyl-N-[1-[2-[4-[(1-methyl-piperidin-4-yl)-methyl]-piperazin-1-yl]-2-oxo-ethyl]-1H-indol-6-yl]-benzenesulfonic acid amide] belongs 26%.
